Laboratory results as given in US20210283163A1, “COMPOSITIONS AND METHODS FOR THE TREATMENT OF ACUTE AND CHRONIC PRURITIS” (Duke University, priority 2018, published 2021).

Assays:
TRPV4 = target: T1, TRPV4 (Mus musculus, UniProt Q9EPK8); assay: Whole-cell patch clamp in CHO cells transfected with mouse Trpv4 cDNA; assay type: cell-based; conditions: miR-711 10 μM; GSK1016790A 1 μM
T1 construct: expressed in transfected cells; host or cells: CHO cells (ATCC CRL-9096), plasmid pcDNA3.1-mTrpv4, a gift from Korea University
T1 sequence (Q9EPK8 whole entry): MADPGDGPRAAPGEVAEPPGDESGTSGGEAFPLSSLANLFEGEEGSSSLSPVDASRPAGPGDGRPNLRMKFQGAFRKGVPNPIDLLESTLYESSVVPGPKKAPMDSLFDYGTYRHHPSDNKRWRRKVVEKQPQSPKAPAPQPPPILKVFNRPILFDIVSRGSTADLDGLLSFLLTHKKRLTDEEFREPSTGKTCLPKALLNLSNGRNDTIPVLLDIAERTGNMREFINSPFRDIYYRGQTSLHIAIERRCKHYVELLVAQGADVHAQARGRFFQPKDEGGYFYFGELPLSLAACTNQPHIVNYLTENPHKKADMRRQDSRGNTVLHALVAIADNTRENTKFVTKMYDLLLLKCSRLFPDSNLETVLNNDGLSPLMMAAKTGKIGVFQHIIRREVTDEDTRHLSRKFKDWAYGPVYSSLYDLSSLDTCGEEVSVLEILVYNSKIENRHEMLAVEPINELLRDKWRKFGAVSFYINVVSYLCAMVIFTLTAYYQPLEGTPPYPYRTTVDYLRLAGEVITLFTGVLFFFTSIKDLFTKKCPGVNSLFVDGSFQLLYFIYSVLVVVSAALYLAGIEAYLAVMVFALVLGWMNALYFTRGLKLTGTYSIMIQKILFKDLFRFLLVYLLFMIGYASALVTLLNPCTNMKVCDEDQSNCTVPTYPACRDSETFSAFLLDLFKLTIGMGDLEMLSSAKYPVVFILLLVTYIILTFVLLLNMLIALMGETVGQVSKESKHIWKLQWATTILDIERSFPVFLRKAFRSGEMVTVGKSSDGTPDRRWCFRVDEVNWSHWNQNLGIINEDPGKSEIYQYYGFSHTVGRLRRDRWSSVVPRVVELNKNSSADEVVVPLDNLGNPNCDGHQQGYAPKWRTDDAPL
Protocol: (§1) Constructs. The cDNAs of mouse pcDNA3.1-Trpa1, pcDNA3.1-Trpv1, pcDNA3.1-Trpv2, pcDNA3.1-Trpv3, and pcDNA3.1-Trpv4 were kindly provided Dr. Sun Work Hwang from Korea University. Mouse Trpa1 cDNA was subcloned into pCGN-HA backbone (Addgene) using In-Fusion HD Cloning Kit (Clontech Laboratories, CA). Q5 Site-Directed Mutagenesis Kit was used to generate mTrpa1 mutant (M1-M13) based on pCGN-mTrpa1.
(§2) Cell Culture and Transfection. CD4^+ Myla cell line was cultured in RPMI 1640 media (GIBCO), supplemented with 2 mM Glutamine (GIBCO), 100 U/mL IL-2 (Sigma), 100 U/mL IL-4 (Sigma), and 10% human AB serum (Sigma). HuT 102 cell line was cultured in RPMI 1640 supplemented with pyruvate, HEPES, and 10% (v/v) fetal bovine serum (HyClone). HEK293-hTRPA1 stable cell line was cultured in MEM (GIBCO) containing 2 mM Glutamine, 4 μg/mL Blasticidin, 10% FBS (v/v). B16 and CHO cells were cultured in high glucose (4.5 g/L) Dulbecco's Modified Eagle's Medium (GIBCO) containing 10% (v/v) fetal bovine serum (GIBCO). Culture media were supplemented with 50 units/mL of penicillin and 50 μg/mL streptomycin, and cultures were maintained with 5% CO2 in 37° C. incubator. Transfection (2 μg cDNA) was performed with Lipofectamine™ 2000 Reagent (Invitrogen) at 80% confluency and the transfected cells were cultured in the same media for 48 hr before electrophysiological and biochemical studies. […]

TRPV2 = target: T2, TRPV2 (Mus musculus, UniProt Q9WTR1); assay: Whole-cell patch clamp in CHO cells transfected with mouse Trpv2 cDNA; assay type: cell-based; conditions: miR-711 10 μM; cannabidiol 100 μM
T2 construct: expressed in transfected cells; host or cells: CHO cells (ATCC CRL-9096), plasmid pcDNA3.1-mTrpv2, a gift from Korea University
T2 sequence (Q9WTR1 1-756): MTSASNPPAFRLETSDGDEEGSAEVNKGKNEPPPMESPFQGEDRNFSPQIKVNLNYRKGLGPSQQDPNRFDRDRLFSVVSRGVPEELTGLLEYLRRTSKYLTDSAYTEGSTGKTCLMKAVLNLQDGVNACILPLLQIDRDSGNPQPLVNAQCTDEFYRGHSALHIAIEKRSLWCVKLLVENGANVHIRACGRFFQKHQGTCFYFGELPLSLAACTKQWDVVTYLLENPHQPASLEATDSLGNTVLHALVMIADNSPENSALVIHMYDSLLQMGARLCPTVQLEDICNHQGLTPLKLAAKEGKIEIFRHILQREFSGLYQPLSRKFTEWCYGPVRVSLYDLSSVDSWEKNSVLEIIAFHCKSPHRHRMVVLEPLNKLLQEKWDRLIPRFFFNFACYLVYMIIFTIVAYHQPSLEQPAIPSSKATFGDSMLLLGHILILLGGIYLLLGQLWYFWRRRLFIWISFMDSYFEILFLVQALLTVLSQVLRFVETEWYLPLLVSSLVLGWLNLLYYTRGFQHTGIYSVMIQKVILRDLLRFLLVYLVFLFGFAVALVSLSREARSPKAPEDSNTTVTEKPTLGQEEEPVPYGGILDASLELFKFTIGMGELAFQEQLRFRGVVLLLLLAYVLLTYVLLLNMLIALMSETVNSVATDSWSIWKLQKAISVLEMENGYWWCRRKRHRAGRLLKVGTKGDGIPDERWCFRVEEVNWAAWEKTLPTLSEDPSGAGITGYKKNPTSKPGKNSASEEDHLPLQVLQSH
Protocol: as §1, §2

TRPV1 = target: T3, TRPV1 (Mus musculus, UniProt Q704Y3); assay: Whole-cell patch clamp in CHO cells transfected with mouse Trpv1 cDNA; assay type: cell-based; conditions: miR-711 10 μM; capsaicin 50 nM
T3 construct: expressed in transfected cells; host or cells: CHO cells (ATCC CRL-9096), plasmid pcDNA3.1-mTrpv1, a gift from Korea University
T3 sequence (Q704Y3 whole entry): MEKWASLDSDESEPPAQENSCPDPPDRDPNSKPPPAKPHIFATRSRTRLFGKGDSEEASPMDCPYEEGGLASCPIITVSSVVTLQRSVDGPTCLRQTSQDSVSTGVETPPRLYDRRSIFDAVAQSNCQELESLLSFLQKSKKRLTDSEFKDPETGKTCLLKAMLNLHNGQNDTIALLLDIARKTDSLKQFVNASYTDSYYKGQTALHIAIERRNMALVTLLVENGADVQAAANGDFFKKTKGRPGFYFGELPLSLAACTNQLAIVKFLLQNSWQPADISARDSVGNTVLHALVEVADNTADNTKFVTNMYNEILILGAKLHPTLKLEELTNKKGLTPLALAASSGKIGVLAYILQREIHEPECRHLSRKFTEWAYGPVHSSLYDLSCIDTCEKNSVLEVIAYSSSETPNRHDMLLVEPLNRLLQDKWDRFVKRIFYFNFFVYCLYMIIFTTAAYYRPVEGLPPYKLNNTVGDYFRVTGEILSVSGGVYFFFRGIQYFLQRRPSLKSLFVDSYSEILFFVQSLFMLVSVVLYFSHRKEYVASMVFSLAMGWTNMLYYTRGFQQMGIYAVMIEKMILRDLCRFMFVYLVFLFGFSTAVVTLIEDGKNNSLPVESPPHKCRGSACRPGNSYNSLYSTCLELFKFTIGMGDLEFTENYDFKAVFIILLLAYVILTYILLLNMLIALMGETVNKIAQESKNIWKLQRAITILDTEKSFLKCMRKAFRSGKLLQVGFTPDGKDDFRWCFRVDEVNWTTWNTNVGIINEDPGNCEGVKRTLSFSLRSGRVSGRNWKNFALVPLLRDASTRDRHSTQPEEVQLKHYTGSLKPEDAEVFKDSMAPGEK
Protocol: as §1, §2

mice [1] = assay: Evans blue extravasation, neurogenic inflammation in a hind paw; assay type: in vivo, mouse; conditions: intraplantar, 10 μL; capsaicin 1 mM, AITC 5 mM, miR-711 1 mM
Protocol: Evans Blue Extravasation. To examine neurogenic inflammation in a hind paw (Han et al., Neuron 2016, 92, 1279-1293), mice were anesthetized with 5% isoflurane. Evans blue (50 mg/kg body weight) was given intravenously 10 min before neurogenic irritant application. […] Evans blue was extracted from the tissues by incubation in 400 μL formamide at 37° C. for 48 hr. Evans blue was quantified by measuring the optical density of the formamide extract at 620 nm. Absorbance was normalized to per gram of tissue weight.

mice [2] = assay: Acute pruritus induced by intradermal pruritogens, effect of peptides; assay type: in vivo, mouse; conditions: peptide 2 mM, 15 μL intradermal; mmu-miR-711 1 mM, 10 μL
Protocol: (§3) Behavioral Assessment for Scratching (Itch) and Wiping (Pain). Mice were shaved on the cheek or nape after a brief anesthesia with isoflurane. Before experiments, mice were habituated in small plastic chambers (14×18×12 cm) daily for two days. The room temperature and humidity remained stable for all the experiments. […] After the injection, the number of scratches in 60 min was counted. A scratch was counted when a mouse lifted its hind paw to scratch the shaved region and returned the paw to the floor or to the mouth. A bout of wiping was defined as a continuous wiping movement with a forepaw directing at the area of the injection area (Shimada and LaMotte, Pain 2008, 139, 681-687). Scratching and wiping behavior was videoed for 30 min or 60 min using Sony HDR-CX610 camera. The video was subsequently played back offline and the numbers of scratches and wipes were quantified in a blinded manner.

hTRPA1 [3] = target: T4, hTRPA1 (Homo sapiens, UniProt O75762); assay: Whole-cell patch clamp, inward currents in HEK293 cells expressing hTRPA1; assay type: cell-based; conditions: peptide 25 μM
T4 sequence (O75762 whole entry): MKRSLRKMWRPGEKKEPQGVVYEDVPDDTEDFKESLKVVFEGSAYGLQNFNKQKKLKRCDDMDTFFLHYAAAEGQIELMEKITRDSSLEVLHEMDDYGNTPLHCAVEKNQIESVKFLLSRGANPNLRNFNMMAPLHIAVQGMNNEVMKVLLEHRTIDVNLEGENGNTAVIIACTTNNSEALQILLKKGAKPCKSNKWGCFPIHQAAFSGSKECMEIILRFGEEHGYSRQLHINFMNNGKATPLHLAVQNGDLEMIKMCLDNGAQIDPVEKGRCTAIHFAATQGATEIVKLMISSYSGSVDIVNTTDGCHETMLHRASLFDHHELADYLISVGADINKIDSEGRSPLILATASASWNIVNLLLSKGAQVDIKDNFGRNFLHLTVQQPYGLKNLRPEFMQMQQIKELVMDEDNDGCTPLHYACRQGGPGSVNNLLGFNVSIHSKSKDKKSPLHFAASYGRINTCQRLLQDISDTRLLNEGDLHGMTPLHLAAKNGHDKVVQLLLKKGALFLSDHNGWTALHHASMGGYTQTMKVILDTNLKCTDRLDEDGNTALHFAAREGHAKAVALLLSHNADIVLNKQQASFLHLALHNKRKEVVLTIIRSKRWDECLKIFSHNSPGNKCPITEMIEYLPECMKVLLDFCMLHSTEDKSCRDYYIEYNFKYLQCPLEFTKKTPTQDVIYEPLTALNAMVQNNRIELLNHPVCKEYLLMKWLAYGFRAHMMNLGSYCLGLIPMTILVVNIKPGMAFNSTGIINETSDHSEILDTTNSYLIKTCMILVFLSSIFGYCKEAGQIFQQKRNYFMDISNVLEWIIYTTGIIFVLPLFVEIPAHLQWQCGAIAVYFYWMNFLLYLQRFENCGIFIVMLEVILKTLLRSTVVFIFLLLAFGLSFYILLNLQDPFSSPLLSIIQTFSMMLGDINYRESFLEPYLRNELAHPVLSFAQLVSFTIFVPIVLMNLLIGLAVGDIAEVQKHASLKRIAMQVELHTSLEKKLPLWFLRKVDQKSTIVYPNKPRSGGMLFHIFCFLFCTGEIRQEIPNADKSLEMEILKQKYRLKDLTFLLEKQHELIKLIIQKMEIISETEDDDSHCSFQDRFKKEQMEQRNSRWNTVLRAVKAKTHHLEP
Protocol: Cell Culture and Transfection. CD4^+ Myla cell line was cultured in RPMI 1640 media (GIBCO), supplemented with 2 mM Glutamine (GIBCO), 100 U/mL IL-2 (Sigma), 100 U/mL IL-4 (Sigma), and 10% human AB serum (Sigma). HuT 102 cell line was cultured in RPMI 1640 supplemented with pyruvate, HEPES, and 10% (v/v) fetal bovine serum (HyClone). HEK293-hTRPA1 stable cell line was cultured in MEM (GIBCO) containing 2 mM Glutamine, 4 μg/mL Blasticidin, 10% FBS (v/v). B16 and CHO cells were cultured in high glucose (4.5 g/L) Dulbecco's Modified Eagle's Medium (GIBCO) containing 10% (v/v) fetal bovine serum (GIBCO). Culture media were supplemented with 50 units/mL of penicillin and 50 μg/mL streptomycin, and cultures were maintained with 5% CO2 in 37° C. incubator. Transfection (2 μg cDNA) was performed with Lipofectamine™ 2000 Reagent (Invitrogen) at 80% confluency and the transfected cells were cultured in the same media for 48 hr before electrophysiological and biochemical studies.
Whole-Cell Patch Clamp Recordings in HEK293 Cells, CHO Cells, and DRG Neurons. Whole-cell patch clamp recordings were performed at room temperature using an Axopatch-200B amplifier (Axon Instruments) with a Digidata 1440B (Axon Instruments). In this study, we only examined small-diameter mouse DRG neurons (<25 μM) and small-diameter human DRG neurons (<55 μM). The patch pipettes were pulled from borosilicate capillaries (World Precision Instruments) using a P-97 Flaming/Brown micropipette puller (Sutter Instrument). Pipette resistance was 4-6 MΩ for whole-cell and outside-out recording. For inward current recordings in mouse and human DRG neurons, HEK293 cells, and CHO cells, the internal solution contains (in mM): 140 CsCl, 10 EGTA, 10 HEPES, and 2 Mg-ATP, adjusted to pH 7.3 with CsOH. Whole cell recordings were performed in an extracellular solution that contains (in mM): 140 NaCl, 5 KCl, 2 MgCl2, 10 HEPES, and 10 glucose, adjusted to pH 7.4 with NaOH and osmolarity to 300-310 mOsm. […] Action potential recordings were performed in small-diameter DRG neurons, with the following solutions: i) internal pipette solution contains: 126 mM K-gluconate, 10 mM NaCl, 1 mM MgCl2, 10 mM EGTA, 10 mM HEPES and 2 mM Na-ATP, adjusted to pH 7.4 with KOH and osmolarity to 295-300 mOsm), and ii) extracellular solution contains: 140 mM NaCl, 5 mM KCl, 2 mM MgCl2, 2 mM CaCl2, 10 mM HEPES, 10 mM glucose, adjusted to pH 7.4 with KOH.

hTRPA1 [4] = target: T4, hTRPA1; assay: RNA pull-down assay and immunoblotting; assay type: binding; conditions: RNA pull-down
Protocol: RNA Pull-Down Assay and Immunoblotting. hTRPA1-expressing HEK293 cells of equal amount (5×10^6) were plated onto 60 mm dishes, and 24 hr later, these cells were incubated with biotin-conjugated miR-711 or miR-711 (m6) in extracellular solution containing 140 mM NaCl, 5 mM KCl, 2 mM CaCl2, 1 mM MgCl2, 10 mM HEPES, and 10 mM glucose, adjusted to pH 7.4 for 15 min at 37° C. with 5% CO2. For crosslinking, 1% formaldehyde (vol/vol) was added at 37° C. for 10 min, then 12.5% glycine was applied to stop crosslinking by 5 min incubation at room temperature. Then the cells were collected and sonicated with ultrosonic probe sonicator (80% output, 5 s on and 10 s off) in 1 mL lysis buffer (1% Triton X-100, 50 mM Tris-HCl, 150 mM NaCl, 5 mM EDTA, pH7.4) on ice for 2 min. We then centrifuged the lysate at 13,000 rpm for 10 min at 4° C. and took 50 μL supernatant as lysate control. The remaining supernatant was added 20 μL streptadvilin agrose beads and incubated overnight. The pellets were collected after centrifuge at 6000 rmp for 30 s. For competing assay, miR-711 (10-50 μM) or mutant miR-711 (m6, 10-50 μM) were added 15 min before the incubation with biotin-conjugated miR-711 (10 μM). For immunoblotting, the lysates or beads were incubated in SDS-PAGE loading buffer for 30 min at 50° C., and supernatant was collected after centrifugation at 13000 rpm and decrosslink at 99° C. for 20 min. The samples were separated on an SDS-PAGE gel, transferred, and probed with TRPA1 antibody (1:1000; Alomone labs). The immunoreactive bands were detected with horseradish peroxidase-conjugated secondary antibody, visualized with enhanced chemiluminescence (Thermo scientific, Pittsburgh, Pa.), and quantified with Image-Pro Plus software (Media Cybernetics, Bethesda, Md.). Each experiment was repeated at least three times.

CTCL mice = assay: Mouse CTCL xenograft model of chronic itch; assay type: in vivo; conditions: given 20 days after Myla cell inoculation; hsa-miR-711 inhibitor 100 μM, HC030031 200 μM, A967079 50 μM, peptides 2 mM
Protocol: Mouse CTCL Xenograft Model of Chronic Itch. We developed a murine xenograft model of cutaneous T cell lymphoma (CTCL) using immune-deficient mice (NOD.CB17-Prkdcscid, 8-10 weeks old, male). CD4^+ MyLa cell line was purchased from Sigma (Ca #95051032). The cell line was established from a plaque biopsy of a person with mycosis fungoides stage II by inclusion of IL-2 and IL-4 in the culture medium. CTCL was generated via intradermal injection of CD4^+ Myla cells (1×10^5 cells/μl, 100 μL) on the nape of the neck. Tumor growth was assessed for 40 days by measurements of tumor diameters.
as §3
Generation of Myla Stable Cell Line Expressing miR-711 Inhibitor. CD4^+ Myla cells were plated at a density of 2×10^5 cells/mL in 2 mL culture media in 6-well plates. For each well, 20 μL of the MISSION Lenti microRNA Inhibitor (hsa-miR-711) lentivirus (Sigma) with a titer of 2.6×10^7 Tu/mL were added. Cell mixtures were incubated at 37° C. for 48 hr, washed with PBS three times, and re-suspended in fresh culture media, and 24 hr later, 1 μg/mL puromycin was added to the cells to select stably transduced cell populations. We tried to grow and passage the cells as much as necessary (usually 3 days) and maintained selection pressure by keeping 1 μg/mL puromycin in the medium. After 4 weeks, a large number of the cells were killed; the remaining cells retained the expression of the plasmid, which stably integrates into the genome of the targeted cells. These cells were used for inoculation to generate the CTCL model for testing the effects of miR-711 inhibitor on chronic itch and tumor growth.

mice [5] = assay: Persistent itch after intradermal adenovirus (AV) overexpression of hsa-miR-711; assay type: in vivo, mouse; conditions: 10 days after the AV injection, A-967079 50 μM, hsa-miR-711 inhibitor 100 μM, blocking peptide 2 μM
Protocol: as §3
miRNA Measurement by Quantitative Real-Time RT-PCR (qPCR). Total RNA was isolated from serum of CTCL mice or adenovirus-treated mice using Qiazol Lysis Reagent (QIAGEN) together with miRNeasy Serum/Plasma Kit (Park et al., Neuron 2014, 82, 47-54). All RNA samples were immediately used or kept at −80° C. until further processing. To convert mature miRNA into cDNA, 6 μl of total RNA solution were reverse transcribed using the miScript II RT Kit (including polyadenylation of miRNAs and reverse transcription using an oligo-dT that binds to a universal RT-sequence). Specific miRNA levels were quantified by qPCR using miScript SYBR Green Kit including miScript miRNA assay for hsa-miR-711, hsa-miR21, hsamiR155, and hsa-miR-326, together with the universal RT primer, according to the manufacturer's protocol (CFX96 Real-Time system, Bio-Rad). Relative quantities of miRNAs were calculated using the Ct value after normalization to control miRNAs. Caenorhabditis elegans miRNA-39 (cel-miRNA-39) was included as spiked-in control for extracellular miRNA.

Compound: CC(C)C[C@H](NC(=O)c1cc2ccccc2s1)C(=O)N1CCN(C(=O)[C@H](CO)NS(=O)(=O)c2ccc(Cl)cc2Cl)CC1 [GSK1016790A]
- inward currents (TRPV4): inward currents induced

Compound: C=C(C)[C@@H]1CCC(C)=C[C@H]1c1c(O)cc(CCCCC)cc1O [cannabidiol]
- inward currents (TRPV2): inward currents induced

Compound: COc1cc(CNC(=O)CCCC/C=C/C(C)C)ccc1O [capsaicin]
- inward currents (TRPV1): inward currents induced
- neurogenic inflammation in hind paws (Evans blue test) (mice [1]): elicited robust neurogenic inflammation

Compound: NH2-FRNELAAAVATFGQL-COOH (H-FRNELAAAVATFGQL-OH) [mutated peptide]
- effect on miR-711-induced pruritus (mice [2]): nor did this peptide inhibit
- inhibition of miR-711-induced TRPA1 inward currents (hTRPA1 [3]): nor did this peptide inhibit
- disruption of the miR-711/TRPA1 interaction (hTRPA1 [4]): Neither did this mutated peptide block

Compound: miR-711 inhibitor: hsa-miR-711 inhibitor with a complementary sequence to hsa-miR-711: cuuacgucucucccuggguccc (SEQ ID NO: 22) (CUUACGUCUCUCCCUGGGUCCC; listed as RNA, chemistry not given here)
- effect on CTCL-evoked chronic itch (CTCL mice): reduced chronic pruritus
- effect on hsa-miR-711 AV-induced persistent itch (mice [5]): Inhibition
